Data: ChEMBL document CHEMBL1201862, “PubChem BioAssay data set” (2004)
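Five concentrations, 48 hours, 96-well plates. Abbreviation: GI50, concentration required for 50% inhibition of growth.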 Active and inactive are the calls of the source. No stated cut-off is given here; in the data, active = GI50 up to about 1.1 µM and inactive = higher.

Columns and labels:
Assay in all cases: NCI anticancer screen, dose series, 48 h
MDA-N = system: MDA-N
NCI-H522 = system: NCI-H522
OVCAR-8 = system: OVCAR-8
RXF 393 = system: RXF 393
ACHN = system: ACHN
T47D = system: T47D
Hs-578T = system: Hs-578T
M14 = system: M14
EKVX = system: EKVX
A549 = system: A549
UACC-257 = system: UACC-257
HCT-15 = system: HCT-15
MCF7 = system: MCF7
MOLT-4 = system: MOLT-4
SNB-75 = system: SNB-75
SK-MEL-28 = system: SK-MEL-28
SW-620 = system: SW-620
LOX IMVI = system: LOX IMVI
HL-60 = system: HL-60

Structure (SMILES) | GI50 (MDA-N) | GI50 (NCI-H522) | GI50 (OVCAR-8) | GI50 (RXF 393) | GI50 (ACHN) | GI50 (T47D) | GI50 (Hs-578T) | GI50 (M14) | GI50 (EKVX) | GI50 (A549) | GI50 (UACC-257) | GI50 (HCT-15) [µM] | GI50 (MCF7) | GI50 (MOLT-4) | GI50 (SNB-75) | GI50 (SK-MEL-28) | GI50 (SW-620) | GI50 (LOX IMVI) | GI50 (HL-60)
O=[N+]([O-])c1ccc2nc(O)c(/C=C(\O)c3ccccc3)nc2c1 | 93.5 µM (inactive) | 12.5 µM (inactive) | 11.5 µM (inactive) | 20.6 µM (inactive) | 26.4 µM (inactive) | 61.7 µM (inactive) | 2.23 µM (inactive) | > 100 µM (inactive) | 49.4 µM (inactive) | 7.64 µM (inactive) | > 100 µM (inactive) | 11.5 | 13.4 µM (inactive) | > 100 µM (inactive) | 16 µM (inactive) | – | – | – | –
C=CC(c1ccccc1)C1(O)c2cccc(O)c2C(=O)c2c(O)cccc21 (configuration not stated) | 5.57 µM (inactive) | 11.7 µM (inactive) | 19.7 µM (inactive) | 14.2 µM (inactive) | 17.8 µM (inactive) | 16.9 µM (inactive) | 15.8 µM (inactive) | 18.4 µM (inactive) | 16.3 µM (inactive) | 14.7 µM (inactive) | 17.8 µM (inactive) | 10.8 | 17.1 µM (inactive) | 11.9 µM (inactive) | 20.5 µM (inactive) | 18.8 µM (inactive) | 15.1 µM (inactive) | 16.4 µM (inactive) | –
O=C1CCSSCCC(=O)Nc2ccccc2N1 | – | > 100 µM (inactive) | > 100 µM (inactive) | > 100 µM (inactive) | > 100 µM (inactive) | > 100 µM (inactive) | > 100 µM (inactive) | > 100 µM (inactive) | > 100 µM (inactive) | > 100 µM (inactive) | > 100 µM (inactive) | > 100 | – | 34 µM (inactive) | – | > 100 µM (inactive) | > 100 µM (inactive) | > 100 µM (inactive) | > 100 µM (inactive)
CCCCn1c(CSc2ccc(Cl)cc2)c(C(=O)OCC)c2cc(OC)c(Br)cc21 | > 100 µM (inactive) | > 100 µM (inactive) | > 100 µM (inactive) | – | > 100 µM (inactive) | > 100 µM (inactive) | > 100 µM (inactive) | > 100 µM (inactive) | > 100 µM (inactive) | > 100 µM (inactive) | > 100 µM (inactive) | > 100 | – | > 100 µM (inactive) | > 100 µM (inactive) | > 100 µM (inactive) | > 100 µM (inactive) | > 100 µM (inactive) | > 100 µM (inactive)
O=c1[nH]c(=O)n(CCOc2ccc(Cl)cc2)cc1Nc1ccccc1 | > 100 µM (inactive) | – | – | > 100 µM (inactive) | > 100 µM (inactive) | – | 29.2 µM (inactive) | > 100 µM (inactive) | 71 µM (inactive) | > 100 µM (inactive) | > 100 µM (inactive) | > 100 | > 100 µM (inactive) | > 100 µM (inactive) | – | > 100 µM (inactive) | > 100 µM (inactive) | > 100 µM (inactive) | > 100 µM (inactive)
Cn1c(=O)cc(NCc2ccc(Cl)cc2)[nH]c1=O | > 100 µM (inactive) | 34.4 µM (inactive) | 44.4 µM (inactive) | 68.7 µM (inactive) | 49.7 µM (inactive) | 91.2 µM (inactive) | 18.8 µM (inactive) | > 100 µM (inactive) | > 100 µM (inactive) | > 100 µM (inactive) | > 100 µM (inactive) | > 100 | 31.9 µM (inactive) | – | 24 µM (inactive) | > 100 µM (inactive) | > 100 µM (inactive) | > 100 µM (inactive) | –
Cc1ccc(S(=O)(=O)NC(=O)NC(Cc2ccc(O)cc2)C(=O)O)cc1 (configuration not stated) | > 100 µM (inactive) | > 100 µM (inactive) | > 100 µM (inactive) | > 100 µM (inactive) | – | > 100 µM (inactive) | > 100 µM (inactive) | > 100 µM (inactive) | – | > 100 µM (inactive) | > 100 µM (inactive) | > 100 | – | > 100 µM (inactive) | > 100 µM (inactive) | > 100 µM (inactive) | > 100 µM (inactive) | > 100 µM (inactive) | > 100 µM (inactive)
COc1cc2nc(-c3cccs3)nc(Nc3cccc([N+](=O)[O-])c3)c2cc1OC | – | 17.6 µM (inactive) | 21.5 µM (inactive) | 25.9 µM (inactive) | 15.7 µM (inactive) | 16.4 µM (inactive) | 26.9 µM (inactive) | 17 µM (inactive) | 15.3 µM (inactive) | 21.1 µM (inactive) | 21.6 µM (inactive) | 16.5 | 24.9 µM (inactive) | 24.9 µM (inactive) | 29 µM (inactive) | 23.7 µM (inactive) | 24.2 µM (inactive) | 18.4 µM (inactive) | 43.4 µM (inactive)
COc1ccccc1N1CCN(CCCNC(=O)c2cc(Cl)c(N)c(Cl)c2)CC1 | – | – | 47.5 µM (inactive) | 27 µM (inactive) | 55.2 µM (inactive) | 42.9 µM (inactive) | 67.1 µM (inactive) | 19.4 µM (inactive) | > 100 µM (inactive) | 61.9 µM (inactive) | 22.8 µM (inactive) | 18.5 | 35.2 µM (inactive) | 19.8 µM (inactive) | 59.3 µM (inactive) | 32.4 µM (inactive) | 37.5 µM (inactive) | – | 15.5 µM (inactive)
C=CCN(c1cc(OCc2ccccc2)c2c(c(C)cn2S(=O)(=O)c2ccc([N+](=O)[O-])cc2)c1[N+](=O)[O-])S(C)(=O)=O | 4.07 µM (inactive) | > 100 µM (inactive) | > 100 µM (inactive) | > 100 µM (inactive) | > 100 µM (inactive) | > 100 µM (inactive) | > 100 µM (inactive) | 29.1 µM (inactive) | > 100 µM (inactive) | > 84.5 µM (inactive) | > 100 µM (inactive) | 31.6 | > 100 µM (inactive) | > 100 µM (inactive) | > 37.8 µM (inactive) | > 100 µM (inactive) | – | > 100 µM (inactive) | –
O=C1C[C@@H](c2ccccc2)O[C@@H](c2ccccc2)C1 | 58.6 µM (inactive) | – | > 100 µM (inactive) | > 100 µM (inactive) | – | > 100 µM (inactive) | > 100 µM (inactive) | > 100 µM (inactive) | > 100 µM (inactive) | > 100 µM (inactive) | > 100 µM (inactive) | > 100 | > 100 µM (inactive) | > 100 µM (inactive) | > 100 µM (inactive) | – | > 100 µM (inactive) | > 100 µM (inactive) | –
O=S(=O)(O)c1ccc(-c2c3nc(c(-c4ccc(S(=O)(=O)O)cc4)c4ccc([nH]4)c(-c4ccc(S(=O)(=O)O)cc4)c4nc(c(-c5ccc(S(=O)(=O)O)cc5)c5ccc2[nH]5)C=C4)C=C3)cc1 | – | 47.3 µM (inactive) | > 100 µM (inactive) | 26.9 µM (inactive) | 45.7 µM (inactive) | 33 µM (inactive) | 13.9 µM (inactive) | > 100 µM (inactive) | – | 55.6 µM (inactive) | > 100 µM (inactive) | 26.4 | > 100 µM (inactive) | 3.1 µM (inactive) | > 100 µM (inactive) | 24.1 µM (inactive) | 97.5 µM (inactive) | 37.8 µM (inactive) | 55.5 µM (inactive)
